According to article PMC5632533, “Mechanisms of action and in vivo antibacterial efficacy assessment of five novel hybrid peptides derived from Indolicidin and Ranalexin against Streptococcus pneumoniae” (PeerJ, 2017):

Experiments:
ICR (CD-1) mice = assay: In vivo toxicity in mice (SC, IN, IP routes); set-up: Aspartate aminotransferase, AST / Alanine transaminase, ALT / Alkaline phosphatase, ALP / Creatinine / Urea / Total bilirubin: unit not given here; details: for Eosinophil / Erythrocytes, RBC / Hematocrit, HCT / Hemoglobin Hgb / Lymphocytes / Mean corpuscular haemoglobin concentration, MCHC / Mean corpuscular haemoglobin, MCH / Mean corpuscular volume, MCV / Monocytes / White blood cells, WBC / platelet Counts, PLT / Granulocytes / Alanine transaminase, ALT / Alkaline phosphatase, ALP / Aspartate aminotransferase, AST / Creatinine / Total bilirubin / Urea: 3 doses (1hr, 12hr, 24hr), RN7-IN9, RN7-IN6 10 mg/kg, day 7, mean±SD, 4 mice; for Alanine transaminase, ALT / Alkaline phosphatase, ALP / Aspartate aminotransferase, AST / Creatinine / Total bilirubin / Urea: serum
Experimental: In this study, 4-week old male, pathogen free ICR (CD-1) mice were purchased from InVivos (Lim Chu Kang, Singapore) and used to assess the in vivo toxicity and antibacterial efficacy of the novel peptides, as these animals are by far the most commonly used model for the study of pneumococcal disease ([Chiavolini, Pozzi & Ricci, 2008]). The mice were kept in ventilated polycarbonate cages (12 h light/dark cycle, 20 ± 2 °C and 55% relative humidity). All mice were familiarized for seven days before any experimental procedure and were given unlimited pellets and water ad libitum. All animal experimentations were conducted according to the guidelines approved by Faculty of Medicine Institutional Animal Care and Use Committee (FOM IACUC), University of Malaya (ethics Reference no. : 2013-07-15/MMBTR/SDS).
In order to evaluate the possible toxic effects correlated to peptides administered in mice, four hybrid peptides RN7-IN10, RN7-IN9, RN7-IN8 and RN7-IN6 were chosen for in vivo toxicity assessment, due to their promising in vitro antibacterial activity ([Jindal et al., 2015]). Mice were separated into four groups (each with four mice) and were injected with respective peptides at 1 h, 12 h, and 24 h (three-dose regimen) via IP, SC, and IN administration routes. The hybrid peptides were first administered at high doses (100 mg/kg for IP route, 100 mg/kg for SC routes and 20 mg/kg for IN route). Any abnormal behavior was recorded and survival of mice was noted as well. In case adverse effects such as high physical stress, severe lethargy, physical inactiveness, and/or death were detected, lower graded doses were given. All the administered mice were monitored for seven days or until death occurred. At day seven post administration, all animals were sacrificed and blood and organs were collected. Untreated mice were used as a control group.
Mice used to evaluate the in vivo toxicity and antibacterial activity of the hybrid peptides using the subcutaneous (SC) and intranasal (IN) administration routes, were anesthetized using a combination of a standard dose of xylazine (ilium xylazil-20, 10 mg/kg) and ketamine (Narketan®-10, 100 mg/kg) through intraperitoneal (IP) injection. After seven days of treatment, the in vivo toxicity and antibacterial efficacy experiments were ended and the surviving mice were anesthetized. Blood samples for Hematological and biochemical analysis were collected via cardiac puncture using a 25G syringe (BD bioscience, San Jose, CA, USA). Whole blood for heamatological analysis was collected in 500 µl dipotassium EDTA microtainer tubes (BD Bioscience, USA). About 500 µl of blood collected an eppedorff tube and centrifuged at 8000 rpm for 5 min and then the serum was transferred into a new 1.5 ml tube for biochemistry analysis. The mice were then euthanized by cervical dislocation, dissected and the following organs were collected for histopathology evaluation: lung, kidney, brain, liver and spleen.
For whole blood analysis, the parameters were number of red cells (RBC), number of white cells (WBC), lymphocytes, monocytes, eosinophil, granulocytes, haemoglobin (Hgb), mean corpuscular volume (MCV), hematocrit (HCT), platelet Counts (PLT), Mean corpuscular haemoglobin (MCH) and corpuscular haemoglobin concentration (MCHC). For biochemistry analysis, the parameters were alanine transaminase (ALT), creatinine, alkaline phosphatase (ALP), aspartate aminotransferase (AST), total bilirubin and urea.
The following organs were collected from all the dissected mice: lung, kidney, brain, spleen, and liver. All tissues were fixed in 10% (v/v) buffered formalin and processed for paraffin embedding. Hematoxylin–eosin (HE) was used to stain the histological sections at the histopathology laboratory, Veterinary Laboratory Service Unit, University Putra Malaysia (UPM).

Streptococcus pneumoniae = details: 30 pneumococcal clinical isolates; earlier study; ref Jindal et al., 2015; cited from earlier work
From the text: Table 1 Sequences and physicochemical properties of the template and hybrid AMPs. | column: MIC^a || One of the advantageous alternatives to today’s antibiotics is antimicrobial peptides (AMPs) ([Deslouches et al., 2013]; [Sánchez-Vásquez et al., 2013]). AMPs are synthesized by almost all living beings as the first line of defense in their immune system against microbial infection. Many aspects favor AMPs over traditional antibiotics: a broad range of antimicrobial activity against pathogenic micro-organisms (including viruses, parasites, bacteria, and fungi), microbial pathogens are less efficient in developing resistance against AMPs, as killing take place in a short contact time and AMPs c ...

[1] = IN, head doses: RN7-IN10, RN7-IN8 20 mg/kg
[2] = SC, head doses: RN7-IN10, RN7-IN8 20 mg/kg

In the case of “FLGGLIKWWPWRR-NH2 [RN7-IN6, hybrid peptide of ranalexin (residues 1-7) and indolicidin (residues 8-13)]”, the Eosinophil (ICR (CD-1) mice; [1]) is reported as 3.5±0.9%, the “Erythrocytes, RBC” value (ICR (CD-1) mice; [1]) is reported as 9.12±0.25 10^6/mm^3 and the “Hematocrit, HCT” value (ICR (CD-1) mice; [1]) is reported as 47.43±0.61%. The “Hemoglobin Hgb” value (ICR (CD-1) mice; [1]) was 15 ± 0.28 g/dL, the Lymphocytes (ICR (CD-1) mice; [1]) was 47.67±12.2% and the “Mean corpuscular haemoglobin concentration, MCHC” value (ICR (CD-1) mice; [1]) was 31.7 ± 0.21 g/dL. For the same substance, the “Mean corpuscular haemoglobin, MCH” value (ICR (CD-1) mice; [1]) was 16.5 ± 0.17 pg, the “Mean corpuscular volume, MCV” value (ICR (CD-1) mice; [1]) was 52.66±1.24 µm^3 and the Monocytes (ICR (CD-1) mice; [1]) was 2.7±0.57%. For the same substance, the “White blood cells, WBC” value (ICR (CD-1) mice; [1]) was 3.6±0.35 10^3/mm^3, the “platelet Counts, PLT” value (ICR (CD-1) mice; [1]) was 597.66±123.23 10^3/mm^3 and the Eosinophil (ICR (CD-1) mice; IP, RN7-IN10, RN7-IN8 20 mg/kg) was 3.22±1.47%. The “Erythrocytes, RBC” value (ICR (CD-1) mice; IP, RN7-IN10, RN7-IN8 20 mg/kg) was 8.71±0.44 10^6/mm^3, the Granulocytes (ICR (CD-1) mice; IP, RN7-IN10, RN7-IN8 20 mg/kg) was 57.87±11.66% and the “Hematocrit, HCT” value (ICR (CD-1) mice; IP, RN7-IN10, RN7-IN8 20 mg/kg) was 44.97±1.75%. The “Hemoglobin Hgb” value (ICR (CD-1) mice; IP, RN7-IN10, RN7-IN8 20 mg/kg) was 15.02 ± 0.59 g/dL, the Lymphocytes (ICR (CD-1) mice; IP, RN7-IN10, RN7-IN8 20 mg/kg) was 54.6±3.8% and the “Mean corpuscular haemoglobin concentration, MCHC” value (ICR (CD-1) mice; IP, RN7-IN10, RN7-IN8 20 mg/kg) was 33.42 ± 0.62 g/dL. The “Mean corpuscular haemoglobin, MCH” value (ICR (CD-1) mice; IP, RN7-IN10, RN7-IN8 20 mg/kg) was 16.67 ± 1.07 pg, the “Mean corpuscular volume, MCV” value (ICR (CD-1) mice; IP, RN7-IN10, RN7-IN8 20 mg/kg) was 50.5±1.29 µm^3 and the Monocytes (ICR (CD-1) mice; IP, RN7-IN10, RN7-IN8 20 mg/kg) was 2.53±0.33%. The “White blood cells, WBC” value (ICR (CD-1) mice; IP, RN7-IN10, RN7-IN8 20 mg/kg) was 4.1±0.72 10^3/mm^3, the “platelet Counts, PLT” value (ICR (CD-1) mice; IP, RN7-IN10, RN7-IN8 20 mg/kg) was 540.75±107.41 10^3/mm^3 and the “maximum IP dose at which no signs of stress or abnormal behavior were evident (non-toxic dose)” value (ICR (CD-1) mice; IP, doses at 1 h, 12 h, 24 h, no death up to seven days) was 10 mg/kg. For the same substance, the Eosinophil (ICR (CD-1) mice; [2]) was 2.7±0.71%, the “Erythrocytes, RBC” value (ICR (CD-1) mice; [2]) was 9.59±0.92 10^6/mm^3 and the Granulocytes (ICR (CD-1) mice; [2]) was 51.12±5.16%. The “Hematocrit, HCT” value (ICR (CD-1) mice; [2]) was 49.2±4.43%, the “Hemoglobin Hgb” value (ICR (CD-1) mice; [2]) was 16.17 ± 1.44 g/dL and the Lymphocytes (ICR (CD-1) mice; [2]) was 51.85±3.3%. For the same substance, the “Mean corpuscular haemoglobin concentration, MCHC” value (ICR (CD-1) mice; [2]) was 32.87 ± 0.42 g/dL, the “Mean corpuscular haemoglobin, MCH” value (ICR (CD-1) mice; [2]) was 16.85 ± 0.3 pg and the “Mean corpuscular volume, MCV” value (ICR (CD-1) mice; [2]) was 50±1.82 µm^3. The Monocytes (ICR (CD-1) mice; [2]) was 2.8±0.25%, the “White blood cells, WBC” value (ICR (CD-1) mice; [2]) was 3.86±0.34 10^3/mm^3 and the “Alanine transaminase, ALT” value (ICR (CD-1) mice; [1]) was 43.2±7.56. For the same substance, the “Alkaline phosphatase, ALP” value (ICR (CD-1) mice; [1]) was 138.33±5.5, the “Aspartate aminotransferase, AST” value (ICR (CD-1) mice; [1]) was 140±7.2 and the Creatinine (ICR (CD-1) mice; [1]) was 40.15±3.6. For the same substance, the Total bilirubin (ICR (CD-1) mice; [1]) was 1.95±0.08, the Urea (ICR (CD-1) mice; [1]) was 10.14±1.52 and the “Alkaline phosphatase, ALP” value (ICR (CD-1) mice; IP, RN7-IN10, RN7-IN8 20 mg/kg) was 114.97±24.9. For the same substance, the “Aspartate aminotransferase, AST” value (ICR (CD-1) mice; IP, RN7-IN10, RN7-IN8 20 mg/kg) was 176±19.31, the Creatinine (ICR (CD-1) mice; IP, RN7-IN10, RN7-IN8 20 mg/kg) was 41.47±4.2 and the Total bilirubin (ICR (CD-1) mice; IP, RN7-IN10, RN7-IN8 20 mg/kg) was 2.1±0.1. For the same substance, the Urea (ICR (CD-1) mice; IP, RN7-IN10, RN7-IN8 20 mg/kg) was 8.97±1.17, the “Alanine transaminase, ALT” value (ICR (CD-1) mice; [2]) was 43.32±10.3 and the “Alkaline phosphatase, ALP” value (ICR (CD-1) mice; [2]) was 106.56±20.1. For the same substance, the “Aspartate aminotransferase, AST” value (ICR (CD-1) mice; [2]) was 158.25±18.9, the Creatinine (ICR (CD-1) mice; [2]) was 34.89±0.25 and the Total bilirubin (ICR (CD-1) mice; [2]) was 2.03±0.14. The Urea (ICR (CD-1) mice; [2]) was 9.07±2.02 and the “MIC, minimum inhibitory concentration” value (Streptococcus pneumoniae) was 7.81 to 15.62 µg/mL.
